Test results as given in US10765114B2, “4-amino-6-(pyridyl and 2-substitutedphenyl)-picolinates and 6-amino-2-(pyridyl and 2-substitutedphenyl)-pyrimidine-4-carboxylates and their use as herbicides” (Dow AgroSciences LLC, priority 2013, dated 2020).

Key:
Test in all cases: Post-Emergent Test III (Wheat and Barley)
[1] = test system: POLCO (wild buckwheat); type: in vivo, Polygonum convolvulus; settings: for Visual Growth Reduction (%) 21 Days After Application, POLCO: postemergence
Protocol: (§1) Seeds of the desired test plant species were planted in Sun Gro MetroMix® 306 planting mixture, which typically has a pH of 6.0 to 6.8 and an organic matter content of about 30 percent, in plastic pots with a surface area of 103.2 square centimeters (cm^2). When required to ensure good germination and healthy plants, a fungicide treatment and/or other chemical or physical treatment was applied. The plants were grown for 7-36 days in a greenhouse with an approximate 14 h photoperiod which was maintained at about 18° C. during the day and 17° C. during the night. Nutrients and water were added on a regular basis and supplemental lighting was provided with overhead metal halide 1000-Watt lamps as necessary. The plants were employed for testing when they reached the second or third true leaf stage.
(§2) A weighed amount, determined by the highest rate to be tested, of each test compound was placed in a 25 mL glass vial and was dissolved in 4 mL of a 97:3 v/v mixture of acetone and DMSO to obtain concentrated stock solutions. […] The concentrated stock solutions obtained were diluted with 20 mL of an aqueous mixture containing acetone, water, isopropyl alcohol, DMSO, Agri-Dex crop oil concentrate, and X-77 surfactant in a 48:39:10:1.5:1.5:0.02 v/v ratio to obtain spray solutions containing the highest application rates. Additional application rates were obtained by serial dilution of 12 mL of the high rate solution into a solution containing 2 mL of 97:3 v/v mixture of acetone and DMSO and 10 mL of an aqueous mixture containing acetone, water, isopropyl alcohol, DMSO, Agri-Dex crop oil concentrate, and X-77 surfactant in a 48:39:10:1.5:1.5:0.02 v/v ratio to obtain ½×, ¼×, ⅛× and 1/16× rates of the high rate. Compound requirements are based upon a 12 mL application volume at a rate of 187 liters per hectare (L/ha). Formulated compounds were applied to the plant material with an overhead Mandel track sprayer equipped with 8002E nozzles calibrated to deliver 187 L/ha over an application area of 0.503 square meters at a spray height of 18 inches (43 cm) above the average plant canopy height. Control plants were sprayed in the same manner with the solvent blank.
(§3) The treated plants and control plants were placed in a greenhouse as described above and watered by subirrigation to prevent wash-off of the test compounds. After 21 dAYS, the condition of the test plants as compared with that of the untreated plants was determined visually and scored on a scale of 0 to 100 percent where 0 corresponds to no injury and 100 corresponds to complete kill and presented as indicated in Table A.
(§4) By applying the well-accepted probit analysis as described by J. Berkson in Journal of the American Statistical Society, 48, 565 (1953) and by D. Finney in “Probit Analysis” Cambridge University Press (1952), herbicidal injury of a specific compound at various rates can be used to calculate GR10, GR20, GR50, GR80 and GR90 values, which are defined as growth reduction factors that correspond to the effective dose of herbicide required to provide plant growth reduction (GR) of 10 percent, 20 percent, 50 percent, 80 percent and 90 percent, respectively. Probit analysis was applied to data collected from multiple dose rates of individual compounds utilizing the procedures explained in the following examples. The analysis of those dose rates is captured in the following tables.

[2] = test system: APESV (windgrass); type: in vivo, Apera spica-venti
Protocol: as §1, §2, §3, §4

[3] = test system: KCHSC (kochia); type: in vivo, Kochia scoparia
Summary of the method: (§5)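 Injury was rated visually on a 0 to 100 percent scale 21 days after treatment, relative to untreated plants, and probit analysis of multiple dose rates gave growth-reduction values. Plants at the second or third true leaf stage had been track-sprayed at 187 L/ha.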

[4] = test system: PAPRH (common poppy); type: in vivo, Papaver rhoeas; settings: for Visual Growth Reduction (%) 21 Days After Application, PAPRH: postemergence
Protocol: as §1, §2, §3, §4

[5] = test system: TRZSS; type: in vivo
Summary of the method: as §5

[6] = test system: HORSS; type: in vivo
Summary of the method: as §5

[7] = test system: BRSSS; type: in vivo; settings: for Visual Growth Reduction (%) 21 Days After Application, BRSSS: postemergence
Summary of the method: as §5

[8] = test system: SASKR (Russian thistle); type: in vivo, Salsola tragus; settings: for Visual Growth Reduction (%) 21 Days After Application, SASKR: postemergence
Protocol: as §1, §2, §3, §4

[9] = effective dose for growth reduction of 50 percent, probit analysis
[10] = effective dose for growth reduction of 80 percent, probit analysis
[11] = effective dose for growth reduction of 90 percent, probit analysis
[12] = effective dose for growth reduction of 10 percent, probit analysis
[13] = effective dose for growth reduction of 20 percent, probit analysis

Question: What does the source list for `Nc1c(F)c(-c2ccc(C(F)(F)F)nc2)nc(C(=O)O)c1Cl` [Compound 46, 4-amino-5-chloro-3-fluoro-6′-(trifluoromethyl)-[2,3′-bipyridine]-6-carboxylic acid]?
Answer: Visual Growth Reduction (%) 21 Days After Application, POLCO ([1]; 35 g ai/ha): E (45-59); Visual Growth Reduction (%) 21 Days After Application, POLCO ([1]; 70 g ai/ha): D (60-74); Visual Growth Reduction (%) 21 Days After Application, POLCO ([1]; 140 g ai/ha): D (60-74); GR50, POLCO [1, 9]: 27 g ai/ha; GR80, POLCO [1, 10]: >140 g ai/ha; GR90, POLCO [1, 11]: >140 g ai/ha; pest or weed control at 35 g/ha ([2]; Apera spica-venti, post-emergence, 504 h, 35 g ai/ha, postemergence, read-out: Visual Growth Reduction (%) 21 Days After Application, APESV): 60 to 74%; pest or weed control at 70 g/ha ([2]; Apera spica-venti, post-emergence, 504 h, 70 g ai/ha, postemergence, read-out: Visual Growth Reduction (%) 21 Days After Application, APESV): 75 to 84%; pest or weed control at 140 g/ha ([2]; Apera spica-venti, post-emergence, 504 h, 140 g ai/ha, postemergence, read-out: Visual Growth Reduction (%) 21 Days After Application, APESV): 85 to 94%; GR50, APESV [2, 9]: 37 g ai/ha; GR80, APESV [2, 10]: 78 g ai/ha; GR90, APESV [2, 11]: 115 g ai/ha; pest or weed control at 35 g/ha ([3]; Bassia scoparia, post-emergence, 504 h, 35 g ai/ha, postemergence, read-out: Visual Growth Reduction (%) 21 Days After Application, KCHSC): 60 to 74%; pest or weed control at 70 g/ha ([3]; Bassia scoparia, post-emergence, 504 h, 70 g ai/ha, postemergence, read-out: Visual Growth Reduction (%) 21 Days After Application, KCHSC): 60 to 74%; pest or weed control at 140 g/ha ([3]; Bassia scoparia, post-emergence, 504 h, 140 g ai/ha, postemergence, read-out: Visual Growth Reduction (%) 21 Days After Application, KCHSC): 85 to 94%; GR50, KCHSC [3, 9]: 29 g ai/ha; GR80, KCHSC [3, 10]: 104 g ai/ha; GR90, KCHSC [3, 11]: >140 g ai/ha; Visual Growth Reduction (%) 21 Days After Application, PAPRH ([4]; 35 g ai/ha): A (95-100); Visual Growth Reduction (%) 21 Days After Application, PAPRH ([4]; 70 g ai/ha): A (95-100); Visual Growth Reduction (%) 21 Days After Application, PAPRH ([4]; 140 g ai/ha): A (95-100); GR50, PAPRH [4, 9]: 2 g ai/ha; GR80, PAPRH [4, 10]: 8 g ai/ha; GR90, PAPRH [4, 11]: 16 g ai/ha; pest or weed control at 35 g/ha ([5]; Triticum aestivum, post-emergence, 504 h, 35 g ai/ha, postemergence, read-out: Visual Growth Reduction (%) 21 Days After Application, TRZSS): 75 to 84%; pest or weed control at 70 g/ha ([5]; Triticum aestivum, post-emergence, 504 h, 70 g ai/ha, postemergence, read-out: Visual Growth Reduction (%) 21 Days After Application, TRZSS): 75 to 84%; pest or weed control at 140 g/ha ([5]; Triticum aestivum, post-emergence, 504 h, 140 g ai/ha, postemergence, read-out: Visual Growth Reduction (%) 21 Days After Application, TRZSS): 85 to 94%; GR10, TRZSS [5, 12]: 1 g ai/ha; GR20, TRZSS [5, 13]: 1 g ai/ha; pest or weed control at 35 g/ha ([6]; Hordeum vulgare, post-emergence, 504 h, 35 g ai/ha, postemergence, read-out: Visual Growth Reduction (%) 21 Days After Application, HORSS): 60 to 74%; pest or weed control at 70 g/ha ([6]; Hordeum vulgare, post-emergence, 504 h, 70 g ai/ha, postemergence, read-out: Visual Growth Reduction (%) 21 Days After Application, HORSS): 75 to 84%; pest or weed control at 140 g/ha ([6]; Hordeum vulgare, post-emergence, 504 h, 140 g ai/ha, postemergence, read-out: Visual Growth Reduction (%) 21 Days After Application, HORSS): 85 to 94%; GR10, HORSS [6, 12]: 1 g ai/ha; GR20, HORSS [6, 13]: 3 g ai/ha; Visual Growth Reduction (%) 21 Days After Application, BRSSS ([7]; 35 g ai/ha): D (60-74); Visual Growth Reduction (%) 21 Days After Application, BRSSS ([7]; 70 g ai/ha): D (60-74); Visual Growth Reduction (%) 21 Days After Application, BRSSS ([7]; 140 g ai/ha): C (75-84); GR50, BRSSS [7, 9]: 11 g ai/ha; GR80, BRSSS [7, 10]: >140 g ai/ha; GR90, BRSSS [7, 11]: >140 g ai/ha; Visual Growth Reduction (%) 21 Days After Application, SASKR ([8]; 35 g ai/ha): E (45-59); Visual Growth Reduction (%) 21 Days After Application, SASKR ([8]; 70 g ai/ha): D (60-74); Visual Growth Reduction (%) 21 Days After Application, SASKR ([8]; 140 g ai/ha): D (60-74); GR50, SASKR [8, 9]: 23 g ai/ha; GR80, SASKR [8, 10]: >140 g ai/ha; GR90, SASKR [8, 11]: >140 g ai/ha
